Laboratory results: patent publication US8067589B2, “Heterocyclic compounds useful in treating diseases and conditions” (Pfizer Inc, priority 2007, dated 2011)

Molecular target: human recombinant H-PGDS (Homo sapiens, UniProt O60760)
Test: Fluoresecence Intensity h-PGDSTBA Enzyme Assay
Conditions: IC50, 5.0 μM PGH2, 2.5 mM L-Glutathione, 10 min preincubation, 4-parameter fit, highest inhibitor concentration typically 1 μM

Chain of human recombinant H-PGDS (O60760 whole entry): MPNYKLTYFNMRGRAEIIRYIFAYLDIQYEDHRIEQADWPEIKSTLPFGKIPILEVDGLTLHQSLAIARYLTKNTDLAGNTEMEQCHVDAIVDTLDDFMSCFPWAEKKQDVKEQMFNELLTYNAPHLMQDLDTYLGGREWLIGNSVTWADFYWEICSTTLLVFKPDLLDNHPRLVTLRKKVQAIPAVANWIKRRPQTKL

| IC50 [nM] | Structure (SMILES) |
| --- | --- |
| 2.98 | CC(C)(C)C(=O)N1CC(NC(=O)c2cnc(-c3cccc(F)c3)nc2)C1 [Example 106, N-[1-(2,2-Dimethylpropanoyl)azetidin-3-yl]-2-(3-fluorophenyl)pyrimidine-5-carboxamide] |
| 0.346 | O=C(N[C@@H]1CCN(Cc2ccccc2)C1)c1cnc(-c2cccc(F)c2)nc1 [Example 79, N-[(3R)-1-Benzylpyrrolidin-3-yl]-2-(3-fluorophenyl)pyrimidine-5-carboxamide] |
| 1 | CN1CCc2nc(N3CC[C@H](NC(=O)c4cnc(-c5cccc(F)c5)nc4)C3)ncc2C1 [Example 78b, 2-(3-Fluorophenyl)-N-[(3S)-1-(6-methyl-5,6,7,8-tetrahydropyrido[4,3-d]pyrimidin-2-yl)pyrrolidin-3-yl]pyrimidine-5-carboxamide] |
| 0.595 | O=C(NC1CCN(c2ncc3c(n2)CCOC3)CC1)c1cnc(-c2cccc(F)c2)nc1 [Example 76, N-[1-(7,8-Dihydro-5H-pyrano[4,3-d]pyrimidin-2-yl)piperidin-4-yl]-2-(3-fluorophenyl)pyrimidine-5-carboxamide] |
| 1.84 | O=C(NC1CCN(CC(F)(F)F)CC1)c1cnc(-c2cc(F)ccc2F)nc1 [Example 73, 2-(2,5-Difluorophenyl)-N-[1-(2,2,2-trifluoroethyl)piperidin-4-yl]pyrimidine-5-carboxamide] |
| 0.355 | CC(C)(C)OC(=O)N1C[C@@H]2[C@H](C1)[C@H]2NC(=O)c1cnc(-c2cccc(F)c2)nc1 [Example 71, tert-Butyl (1R,5S,6s)-6-({[2-(3-fluorophenyl)pyrimidin-5-yl]carbonyl}amino)-3-azabicyclo[3.1.0]hexane-3-carboxylate] |
| 0.706 | O=C(NC1CN(c2nnnn2-c2ccccc2)C1)c1cnc(-c2cccc(F)c2)nc1 [Example 104, 2-(3-Fluorophenyl)-N-[1-(1-phenyl-1H-tetrazol-5-yl)azetidin-3-yl]pyrimidine-5-carboxamide] |
| 4.47 | N#Cc1ccc(C(F)(F)F)nc1N1C[C@H](O)[C@H](NC(=O)c2cnc(-c3cccc(F)c3)nc2)C1 (relative stereo) [Example 100, Cis-N-{1-[3-Cyano-6-(trifluoromethyl)pyridin-2-yl]-4-hydroxypyrrolidin-3-yl}-2-(3-fluorophenyl)pyrimidine-5-carboxamide] |
| 1.18 | O=C(NC1CCN(Cc2cccc(Cl)c2)C1=O)c1cnc(-c2cccc(F)c2)nc1 (centres unmarked) [Example 83, N-[1-(3-Chlorobenzyl)-2-oxopyrrolidin-3-yl]-2-(3-fluorophenyl)pyrimidine-5-carboxamide] |
| 3.2 | CCOC(=O)N1CCC(NC(=O)c2cnc(-c3cc(F)ccc3F)nc2)CC1 [Example 74, Ethyl 4-({[2-(2,5-difluorophenyl)pyrimidin-5-yl]carbonyl}amino)piperidine-1-carboxylate] |
| 0.379 | CN1CCc2nc(N3CCC(NC(=O)c4cnc(-c5cccc(F)c5)nc4)C3)ncc2C1 (centres unmarked) [Example 78, 2-(3-Fluorophenyl)-N-[1-(6-methyl-5,6,7,8-tetrahydropyrido[4,3-d]pyrimidin-2-yl)pyrrolidin-3-yl]pyrimidine-5-carboxamide] |

The next lines start with the compound.

| Structure (SMILES) | IC50 [nM] |
| --- | --- |
| O=C(NC1CCN(Cc2ccc(F)cc2)CC1)c1cnc(-c2cccc(F)c2)nc1 [Example 63, N-[1-(4-Fluorobenzyl)piperidin-4-yl]-2-(3-fluorophenyl)pyrimidine-5-carboxamide] | 0.509 |
| Cc1nc(-c2ccccc2)ncc1C(=O)NC1CCN(Cc2ccccn2)CC1 [Example 3, 4-Methyl-2-phenyl-N-[1-(pyridin-2-ylmethyl)piperidin-4-yl]pyrimidine-5-carboxamide] | 14.1 |
| Cc1nc(-c2ccccc2)ncc1C(=O)NC1CCN(Cc2ccccc2)CC1 [Example 2, N-(1-Benzylpiperidin-4-yl)-4-methyl-2-phenylpyrimidine-5-carboxamide] | 67.4 |
| Cc1nc(N2CCC(NC(=O)c3cnc(-c4cccc(F)c4)nc3)CC2)[nH]c(=O)c1CCO [Example 60, 2-(3-Fluorophenyl)-N-{1-[5-(2-hydroxyethyl)-4-methyl-6-oxo-1,6-dihydropyrimidin-2-yl]piperidin-4-yl}pyrimidine-5-carboxamide] | 1.02 |
| CC(C)N1CCC(NC(=O)c2cnc(-c3ccccc3)nc2N)CC1 [Example 16, 4-Amino-N-(1-isopropylpiperidin-4-yl)-2-phenyl-pyrimidine-5-carboxamide] | 219 |
| O=C(NC1CCN(CC2CC2)CC1)c1cnc(-c2cccc(F)c2)nc1 [Example 35, N-[1-(Cyclopropylmethyl)piperidin-4-yl]-2-(3-fluorophenyl)pyrimidine-5-carboxamide] | 0.62 |
| N#Cc1cc(Cl)ccc1OCC(c1ccccc1)N1CCC(NC(=O)c2cnc(-c3cccc(F)c3)nc2)CC1 (centres unmarked) [Example 31, N-{1-[2-(4-Cchloro-2-cyanophenoxy)-1-phenylethyl]piperidin-4-yl}-2-(3-fluorophenyl)pyrimidine-5-carboxamide] | 7.68 |
| O=C(NC1CCN(C(COc2c(F)cc(F)cc2F)c2ccccc2)CC1)c1cnc(-c2cccc(F)c2)nc1 (centres unmarked) [Example 32, 2-(3-Fluorophenyl)-N-{1-[1-phenyl-2-(2,4,6-trifluorophenoxy)ethyl]piperidin-4-yl}pyrimidine-5-carboxamide] | 8.91 |
| Cc1ccc(F)c(OCC(c2ccccc2)N2CCC(NC(=O)c3cnc(-c4cccc(F)c4)nc3)CC2)c1 (centres unmarked) [Example 59, N-{1-[2-(2-Fluoro-5-methylphenoxy)-1-phenylethyl]piperidin-4-yl}-2-(3-fluorophenyl)pyrimidine-5-carboxamide] | 8.16 |
| O=C(NC1CCN(C(COc2ccc(F)c(F)c2F)c2ccccc2)CC1)c1cnc(-c2cccc(F)c2)nc1 (centres unmarked) [Example 55, 2-(3-Fluorophenyl)-N-{1-[1-phenyl-2-(2,3,4-trifluorophenoxy)ethyl]piperidin-4-yl}pyrimidine-5-carboxamide] | 45.4 |
| N#Cc1cccc(OCC(c2ccccc2)N2CCC(NC(=O)c3cnc(-c4cccc(F)c4)nc3)CC2)c1 (centres unmarked) [Example 40, N-{1-[2-(3-Cyanophenoxy)-1-phenylethyl]piperidin-4-yl}-2-(3-fluorophenyl)pyrimidine-5-carboxamide] | 3.02 |
| Cc1cc(F)ccc1OCC(c1ccccc1)N1CCC(NC(=O)c2cnc(-c3cccc(F)c3)nc2)CC1 (centres unmarked) [Example 57, N-{1-[2-(4-Fluoro-2-methylphenoxy)-1-phenylethyl]piperidin-4-yl}-2-(3-fluorophenyl)pyrimidine-5-carboxamide] | 11.4 |
| Cc1cc(=O)[nH]c(N2CCC(NC(=O)c3cnc(-c4cccc(F)c4)nc3)CC2)n1 [Example 70, 2-(3-Fluorophenyl)-N-[1-(4-methyl-6-oxo-1,6-dihydropyrimidin-2-yl)piperidin-4-yl]pyrimidine-5-carboxamide] | 0.962 |
| COc1cccc(OC)c1CN1CCC(NC(=O)c2cnc(-c3ccccc3)nc2N)CC1 [Example 17, 4-Amino-N-[1-(2,6-dimethoxybenzyl)piperidin-4-yl]-2-phenylpyrimidine-5-carboxamide] | 19.3 |
| Cc1cc(OCC(c2ccccc2)N2CCC(NC(=O)c3cnc(-c4cccc(F)c4)nc3)CC2)ccc1F (centres unmarked) [Example 45, N-{1-[2-(4-Fluoro-3-methylphenoxy)-1-phenylethyl]piperidin-4-yl}-2-(3-fluorophenyl)pyrimidine-5-carboxamide] | 14.2 |
